From US20030215462A1, “Use of UGT inhibitors to increase bioavailability” (priority 2001, published 2003)

Assays:
UGT1A8 [1] = target: T1, UGT1A8 (Homo sapiens, UniProt Q9HAW9)
T1 sequence (Q9HAW9 26-530): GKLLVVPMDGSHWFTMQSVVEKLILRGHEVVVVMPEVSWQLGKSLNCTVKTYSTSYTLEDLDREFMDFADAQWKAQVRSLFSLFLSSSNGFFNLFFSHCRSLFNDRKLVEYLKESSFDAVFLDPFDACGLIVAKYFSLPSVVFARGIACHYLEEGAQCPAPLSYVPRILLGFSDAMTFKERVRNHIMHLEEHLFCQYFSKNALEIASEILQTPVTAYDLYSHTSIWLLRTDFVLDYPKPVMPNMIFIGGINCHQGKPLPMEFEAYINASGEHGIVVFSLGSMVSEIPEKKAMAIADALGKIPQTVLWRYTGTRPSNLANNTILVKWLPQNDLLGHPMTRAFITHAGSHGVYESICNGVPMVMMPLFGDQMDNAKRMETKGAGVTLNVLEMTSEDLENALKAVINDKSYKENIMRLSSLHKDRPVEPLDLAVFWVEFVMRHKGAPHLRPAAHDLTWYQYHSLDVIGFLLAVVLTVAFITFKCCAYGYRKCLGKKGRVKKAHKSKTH

[2] = humans; cited from earlier work
UGT2B7 [3] = target: T2, UGT2B7 (Homo sapiens, UniProt P16662); details: 30 min, 100 μM, pH 7.5
T2 sequence (P16662 24-529): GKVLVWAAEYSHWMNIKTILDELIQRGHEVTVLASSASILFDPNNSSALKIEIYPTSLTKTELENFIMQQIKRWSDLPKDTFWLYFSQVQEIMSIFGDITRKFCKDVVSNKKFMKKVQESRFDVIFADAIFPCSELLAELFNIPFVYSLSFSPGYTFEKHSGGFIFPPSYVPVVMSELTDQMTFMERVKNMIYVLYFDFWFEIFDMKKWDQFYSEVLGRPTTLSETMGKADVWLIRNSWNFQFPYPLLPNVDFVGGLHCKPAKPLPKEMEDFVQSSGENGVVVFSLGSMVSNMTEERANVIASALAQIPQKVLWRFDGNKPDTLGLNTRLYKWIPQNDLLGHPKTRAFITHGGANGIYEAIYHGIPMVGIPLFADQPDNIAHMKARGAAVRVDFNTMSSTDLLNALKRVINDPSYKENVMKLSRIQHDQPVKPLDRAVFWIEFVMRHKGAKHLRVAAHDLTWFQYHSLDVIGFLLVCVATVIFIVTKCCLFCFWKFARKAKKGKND

UGT1A3 [4] = target: T3, UGT1A3 (Homo sapiens, UniProt P35503)
T3 sequence (P35503 29-534): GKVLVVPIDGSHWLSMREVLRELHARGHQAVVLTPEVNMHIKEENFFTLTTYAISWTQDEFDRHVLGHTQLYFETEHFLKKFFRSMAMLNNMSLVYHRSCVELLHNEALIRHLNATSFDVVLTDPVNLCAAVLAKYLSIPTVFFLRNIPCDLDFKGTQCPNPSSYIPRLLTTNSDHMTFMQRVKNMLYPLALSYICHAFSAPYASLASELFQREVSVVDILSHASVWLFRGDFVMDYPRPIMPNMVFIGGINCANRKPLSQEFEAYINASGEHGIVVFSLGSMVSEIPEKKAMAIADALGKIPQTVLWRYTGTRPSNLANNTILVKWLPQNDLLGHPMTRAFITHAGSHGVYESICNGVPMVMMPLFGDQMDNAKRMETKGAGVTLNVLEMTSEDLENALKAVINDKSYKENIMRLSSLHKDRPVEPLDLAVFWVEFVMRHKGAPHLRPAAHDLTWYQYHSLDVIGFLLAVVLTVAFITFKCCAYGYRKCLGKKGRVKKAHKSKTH

UGT1A8 [5] = target: T1, UGT1A8; experiment: in vitro; details: pH 7.5, % of control metabolism
Experimental: (§1) Compounds were eluted using a binary solvent gradient system. Solvent A was water brought to pH 8 with NH4OH. Solvent B was methanol. Solvent flow rate was 1 ml/min and the column temperature was maintained at 50° C. Detection was at 280 nm. […] The system was then returned to the initial conditions and equilibrated for 3 min.

UGT1A1 = target: T4, UGT1A1 (Homo sapiens, UniProt P22309); experiment: in vitro
T4 sequence (P22309 26-533): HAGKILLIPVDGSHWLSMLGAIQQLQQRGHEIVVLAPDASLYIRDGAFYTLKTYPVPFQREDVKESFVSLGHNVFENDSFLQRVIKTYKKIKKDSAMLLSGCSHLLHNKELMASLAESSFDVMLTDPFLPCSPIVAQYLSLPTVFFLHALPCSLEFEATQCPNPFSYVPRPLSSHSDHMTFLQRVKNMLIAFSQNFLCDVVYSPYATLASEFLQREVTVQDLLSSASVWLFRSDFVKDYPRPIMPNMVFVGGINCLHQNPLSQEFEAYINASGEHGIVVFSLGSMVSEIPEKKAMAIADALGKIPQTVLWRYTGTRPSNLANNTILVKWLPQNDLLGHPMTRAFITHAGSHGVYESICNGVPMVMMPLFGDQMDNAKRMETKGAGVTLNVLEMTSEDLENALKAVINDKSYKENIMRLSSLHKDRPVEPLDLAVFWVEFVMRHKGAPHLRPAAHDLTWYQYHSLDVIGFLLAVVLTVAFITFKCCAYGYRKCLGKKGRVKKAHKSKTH
Experimental: as §1

UGT2B7 [6] = target: T2, UGT2B7; experiment: Substrate glucuronidation by recombinant UGT2B7; details: for 7-HFC glucuronidation rate: 7-HFC 50 μM
UGT1A3 [7] = target: T3, UGT1A3; experiment: Substrate glucuronidation by recombinant UGT1A3; details: for 7-HFC glucuronidation rate: 7-HFC 50 μM
UGT1A7 = UGT1A7 (Homo sapiens, UniProt Q9HAW7); experiment: Substrate glucuronidation by recombinant UGT1A7; type: in vitro ADME; details: UGT1A7 Bacculosomes 250 μg/ml; 7-HFC 50 μM
Chain of UGT1A7 (Q9HAW7 26-530): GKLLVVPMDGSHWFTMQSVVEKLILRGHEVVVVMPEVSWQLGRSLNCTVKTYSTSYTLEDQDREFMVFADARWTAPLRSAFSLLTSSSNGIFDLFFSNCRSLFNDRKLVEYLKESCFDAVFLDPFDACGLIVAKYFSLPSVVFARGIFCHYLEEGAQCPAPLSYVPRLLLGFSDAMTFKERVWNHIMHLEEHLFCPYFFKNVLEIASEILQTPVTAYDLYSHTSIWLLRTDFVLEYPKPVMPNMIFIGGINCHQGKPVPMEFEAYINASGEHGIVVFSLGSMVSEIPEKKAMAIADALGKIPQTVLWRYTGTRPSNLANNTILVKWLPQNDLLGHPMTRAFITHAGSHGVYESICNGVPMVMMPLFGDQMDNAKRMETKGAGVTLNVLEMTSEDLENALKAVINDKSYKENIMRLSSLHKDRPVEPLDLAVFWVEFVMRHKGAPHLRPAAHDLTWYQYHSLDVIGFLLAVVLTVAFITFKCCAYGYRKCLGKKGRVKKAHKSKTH

[8] = tested on: UGT enzymes of human liver microsomes; experiment: Inhibition of zidovudine glucuronidation in human liver microsomes; type: biochemical
Experimental: Compounds were eluted using a binary solvent gradient system where solvent A was dilute phosphoric acid (pH 3) and solvent B was acetonitrile.
Standardized incubations utilized 500 μM zidovudine substrate, 1 mg/ml microsomal protein, 5 mM UDPGA and a 30 min incubation time. […] Int.

[9] = tested on: UGT enzymes of pooled human jejunum microsomes; experiment: Inhibition of zidovudine glucuronidation in pooled human jejunum microsomes; type: biochemical; details: inhibitor 50 μM
Experimental: Increasing the microsomal protein concentration to 1 mg/ml and extending the incubation time to 60 min provided meaningful metabolite levels for inhibition studies.

[10] = pH 7.5, % of control metabolism, raloxifene G1
[11] = pH 7.5, % of control metabolism, raloxifene G2
[12] = pH 7.5, Inhibition of raloxifene glucuronidation, G1, UGT1A1
[13] = pH 7.5, Inhibition of raloxifene glucuronidation, G2, UGT1A1

| SMILES | activity at 15 min, 50 µM (UGT1A8 [5]; raloxifene G1) | activity at 15 min, 50 µM (UGT1A8 [5]; raloxifene G2) | activity at 15 min, 25 µM (UGT1A1; [10]) | activity at 15 min, 50 µM (UGT1A1; [10]) | activity at 15 min, 25 µM (UGT1A1; [11]) | activity at 15 min, 50 µM (UGT1A1; [11]) | activity at 15 min, 25 µM (UGT1A1; [12]) | activity at 15 min, 50 µM (UGT1A1; [12]) | activity at 15 min, 25 µM (UGT1A1; [13]) | activity at 15 min, 50 µM (UGT1A1; [13]) | also measured |
| --- | --- | --- | --- | --- | --- | --- | --- | --- | --- | --- | --- |
| CC(CCc1ccccc1)NCC(O)c1ccc(O)c(C(N)=O)c1 (stereo not shown) [Labetalol, labetalol] |  |  |  |  |  |  |  |  |  |  | labetalol metabolism, in words (UGT1A8 [1]): No detectable metabolism was observed; absolute oral bioavailability [2]: 25-30%; LG1/LG2 (UGT2B7 [3]): 12; labetalol metabolite LG1, peak area normalized to internal standard (UGT2B7 [3]): 993 (52); labetalol metabolite LG2, peak area normalized to internal standard (UGT2B7 [3]): 81 (3); labetalol metabolism, in words (UGT1A3 [4]): No detectable metabolism was observed |
| O=C(O[C@@H]1Cc2c(O)cc(O)cc2O[C@@H]1c1ccc(O)c(O)c1)c1cc(O)c(O)c(O)c1 [Epicatechin gallate] | 71% | 53% | 39% | 23% | 43% | 25% | 39% | 23% | 43% | 25% |  |
| CCCOC(=O)c1cc(O)c(O)c(O)c1 [Propyl gallate] |  |  |  | 72% |  | 73% |  | 72% |  | 73% |  |
| O=c1cc(C(F)(F)F)c2ccc(O)cc2o1 [7-HFC, 7-hydroxy-4-(trifluoromethyl)coumarin] |  |  |  |  |  |  |  |  |  |  | 7-HFC glucuronidation rate in Panvera Bacculosomes as % of Gentest Supersomes (UGT2B7 [6]; UGT2B7): 22%; 7-HFC glucuronidation rate (UGT2B7 [6]; UGT2B7 Bacculosomes 250 μg/ml): 212 ± 13 pmol/min/mg protein; 7-HFC glucuronidation rate (UGT2B7 [6]; UGT2B7 Supersomes 250 μg/ml): 972 ± 72 pmol/min/mg protein; 7-HFC glucuronidation rate in Panvera Bacculosomes as % of Gentest Supersomes (UGT1A3 [7]; UGT1A3): 2%; 7-HFC glucuronidation rate (UGT1A3 [7]; UGT1A3 Bacculosomes 250 μg/ml): 17 ± 1 pmol/min/mg protein; 7-HFC glucuronidation rate (UGT1A3 [7]; UGT1A3 Supersomes 250 μg/ml): 952 ± 82 pmol/min/mg protein; 7-HFC glucuronidation rate (UGT1A7): 564 ± 9 pmol/min/mg protein |
| O=c1c(O)c(-c2ccc(O)c(O)c2)oc2cc(O)cc(O)c12 [Quercetin] | 95% | 81% | 13% | 2% | 13% | 3% | 13% | 2% | 13% | 3% | inhibition of zidovudine metabolism, in words [8]: ineffective; activity at 15 min, 10 µM (UGT1A1; [10]): 45%; activity at 15 min, 10 µM (UGT1A1; [11]): 43%; activity at 15 min, 2 μM (UGT1A1; [12]): 89%; activity at 15 min, 5 µM (UGT1A1; [12]): 71%; activity at 15 min, 2 μM (UGT1A1; [13]): 90%; activity at 15 min, 5 µM (UGT1A1; [13]): 70% |
| C=CCc1ccc(O)c(OC)c1 [Eugenol] | 107% | 103% |  |  |  |  |  |  |  |  | activity at 15 min, 50 µM (UGT1A1; pH 7.5, % of control metabolism, raloxifene G1, UGT1A1, inhibitor 50 μM): 85%; activity at 15 min, 50 µM (UGT1A1; pH 7.5, % of control metabolism, raloxifene G2, UGT1A1, inhibitor 50 μM): 79%; activity at 15 min, 50 µM (UGT1A1; pH 7.5, Inhibition of raloxifene glucuronidation, G1, UGT1A1, G1, inhibitor 50 μM, raloxifene 50 μM, 250 μg/ml Supersomes, 1 mM UDPGA, 15 min): 85%; activity at 15 min, 50 µM (UGT1A1; pH 7.5, Inhibition of raloxifene glucuronidation, G2, UGT1A1, G2, inhibitor 50 μM, raloxifene 50 μM, 250 μg/ml Supersomes, 1 mM UDPGA, 15 min): 79% |
| CC/C(=C(/CC)c1ccc(O)cc1)c1ccc(O)cc1 [Diethylstilbestrol, reference compound] |  |  |  |  |  |  |  |  |  |  | residual metabolism (percentage of control), zidovudine [9]: 42 (3) % |
| O=C(O)c1cc(-c2ccc(F)cc2F)ccc1O [Diflunisal, reference compound] | 81% | 126% | 53% | 31% | 53% | 33% | 53% | 31% | 53% | 33% |  |
